Reference: PubChem BioAssay AID1259407 (Chemical Carcinogenesis Research Information System (CCRIS), 2018)
Activity calls are given as the source filed them. No rule for the calls is given here.

Tested on: CCRIS mutagenicity, Ames/micronucleus/aberration tests
Assay: CCRIS mutagenicity studies
[1] = Test System: AMES SALMONELLA TYPHIMURIUM, Strain/Indicator: TA98, Metabolic Activation: NONE, Method: STANDARD PLATE
[2] = Test System: AMES SALMONELLA TYPHIMURIUM, Strain/Indicator: TA98, Metabolic Activation: RAT, LIVER, S-9, AROCLOR 1254, Method: STANDARD PLATE
[3] = Test System: AMES SALMONELLA TYPHIMURIUM, Strain/Indicator: TA100, Metabolic Activation: NONE, Method: STANDARD PLATE
[4] = Test System: AMES SALMONELLA TYPHIMURIUM, Strain/Indicator: TA100, Metabolic Activation: RAT, LIVER, S-9, AROCLOR 1254, Method: STANDARD PLATE
[5] = Test System: AMES SALMONELLA TYPHIMURIUM, Strain/Indicator: TA1535, Metabolic Activation: NONE, Method: STANDARD PLATE
[6] = Test System: AMES SALMONELLA TYPHIMURIUM, Strain/Indicator: TA1535, Metabolic Activation: RAT, LIVER, S-9, AROCLOR 1254, Method: STANDARD PLATE
[7] = Test System: AMES SALMONELLA TYPHIMURIUM, Strain/Indicator: TA1537, Metabolic Activation: NONE, Method: STANDARD PLATE
[8] = Test System: AMES SALMONELLA TYPHIMURIUM, Strain/Indicator: TA1537, Metabolic Activation: RAT, LIVER, S-9, AROCLOR 1254, Method: STANDARD PLATE
[9] = Test System: AMES SALMONELLA TYPHIMURIUM, Strain/Indicator: TA1538, Metabolic Activation: NONE, Method: STANDARD PLATE

Compound	mutagenic call [1]	mutagenic call [2]	mutagenic call [3]	mutagenic call [4]	mutagenic call [5]	mutagenic call [6]	mutagenic call [7]	mutagenic call [8]	mutagenic call [9]	other results
C#C[C@]1(OC(=O)CCCCCC)CC[C@H]2[C@@H]3CCC4=CC(=O)CC[C@@H]4[C@H]3CC[C@@]21C	inactive; negative	inactive; negative	inactive; negative	inactive; negative	inactive; negative	inactive; negative	inactive; negative	inactive; negative	inactive; negative	mutagenic call (Test System: AMES SALMONELLA TYPHIMURIUM, Strain/Indicator: TA98, Metabolic Activation: NONE, Method: PREINCUBATION): inactive; negative; mutagenic call (Test System: AMES SALMONELLA TYPHIMURIUM, Strain/Indicator: TA98, Metabolic Activation: RAT, LIVER, S-9, AROCLOR 1254, Method: PREINCUBATION): inactive; negative; mutagenic call (Test System: AMES SALMONELLA TYPHIMURIUM, Strain/Indicator: TA100, Metabolic Activation: NONE, Method: PREINCUBATION): inactive; negative; mutagenic call (Test System: AMES SALMONELLA TYPHIMURIUM, Strain/Indicator: TA100, Metabolic Activation: RAT, LIVER, S-9, AROCLOR 1254, Method: PREINCUBATION): inactive; negative; mutagenic call (Test System: AMES SALMONELLA TYPHIMURIUM, Strain/Indicator: TA1535, Metabolic Activation: NONE, Method: PREINCUBATION): inactive; negative; mutagenic call (Test System: AMES SALMONELLA TYPHIMURIUM, Strain/Indicator: TA1535, Metabolic Activation: RAT, LIVER, S-9, AROCLOR 1254, Method: PREINCUBATION): inactive; negative; mutagenic call (Test System: AMES SALMONELLA TYPHIMURIUM, Strain/Indicator: TA1537, Metabolic Activation: NONE, Method: PREINCUBATION): inactive; negative; mutagenic call (Test System: AMES SALMONELLA TYPHIMURIUM, Strain/Indicator: TA1537, Metabolic Activation: RAT, LIVER, S-9, AROCLOR 1254, Method: PREINCUBATION): inactive; negative; mutagenic call (Test System: AMES SALMONELLA TYPHIMURIUM, Strain/Indicator: TA1538, Metabolic Activation: NONE, Method: PREINCUBATION): inactive; negative; mutagenic call (Test System: AMES SALMONELLA TYPHIMURIUM, Strain/Indicator: TA1538, Metabolic Activation: RAT, LIVER, S-9, AROCLOR 1254, Method: PREINCUBATION): inactive; negative; mutagenic call (Test System: AMES SALMONELLA TYPHIMURIUM, Strain/Indicator: TA1538, Metabolic Activation: RAT, LIVER, S-9, AROCLOR 1254, Method: STANDARD PLATE): inactive; negative
CCN(CC)c1ccc(N=Nc2c(Cl)cc([N+](=O)[O-])cc2Cl)cc1	active; positive	active; positive	inactive; negative	inactive; negative	inactive; negative	inactive; negative	inactive; negative	inactive; negative	–	mutagenic call (Test System: CHINESE HAMSTER OVARY, Strain/Indicator: CHO (HGPRT)/6-THIOGUANINE, Metabolic Activation: NONE): inactive; negative; mutagenic call (Test System: CHINESE HAMSTER OVARY, Strain/Indicator: CHO (HGPRT)/6-THIOGUANINE, Metabolic Activation: RAT, LIVER, S-9, AROCLOR 1254): inactive; negative; mutagenic call (Test System: UDS RAT HEPATOCYTES, Strain/Indicator: THY INCORP, Metabolic Activation: NONE, Method: AUTORADIOGRAPHY): inactive; negative
CN(C)CCCNc1c2ccccc2nc2c(N(CCO)CCO)ccc([N+](=O)[O-])c12	active; positive	–	active; positive	–	–	–	–	–	–	–
COc1ccc(N(CCCl)CCCl)c2oc([N+](=O)[O-])cc12	–	–	active; positive	active; positive	–	–	–	–	–	mutagenic call (Test System: AMES SALMONELLA TYPHIMURIUM, Strain/Indicator: TA100(NR), Metabolic Activation: NONE, Method: STANDARD PLATE): active; positive; mutagenic call (Test System: AMES SALMONELLA TYPHIMURIUM, Strain/Indicator: TA100(NR), Metabolic Activation: RAT, LIVER, S-9, AROCLOR 1254, Method: STANDARD PLATE): active; positive
C[Si](C)(C)O[Si](C)(C)C	inactive; negative	–	inactive; negative	–	inactive; negative	–	inactive; negative	–	inactive; negative	mutagenic call (Test System: AMES SALMONELLA TYPHIMURIUM, Strain/Indicator: TA98, Metabolic Activation: RAT LIVER S-9, AROCLOR 1254, Method: STANDARD PLATE): inactive; negative; mutagenic call (Test System: AMES SALMONELLA TYPHIMURIUM, Strain/Indicator: TA100, Metabolic Activation: RAT LIVER S-9, AROCLOR 1254, Method: STANDARD PLATE): inactive; negative; mutagenic call (Test System: AMES SALMONELLA TYPHIMURIUM, Strain/Indicator: TA1535, Metabolic Activation: RAT LIVER S-9, AROCLOR 1254, Method: STANDARD PLATE): inactive; negative; mutagenic call (Test System: AMES SALMONELLA TYPHIMURIUM, Strain/Indicator: TA1537, Metabolic Activation: RAT LIVER S-9, AROCLOR 1254, Method: STANDARD PLATE): inactive; negative; mutagenic call (Test System: AMES SALMONELLA TYPHIMURIUM, Strain/Indicator: TA1538, Metabolic Activation: RAT LIVER S-9, AROCLOR 1254, Method: STANDARD PLATE): inactive; negative; mutagenic call (Test System: E. COLI, Strain/Indicator: P3078 POLA, Metabolic Activation: NONE, Method: SPOT TEST): inactive; negative; mutagenic call (Test System: E. COLI, Strain/Indicator: P3078 POLA, Metabolic Activation: RAT LIVER S-9, AROCLOR 1254, Method: SPOT TEST): inactive; negative; mutagenic call (Test System: E. COLI, Strain/Indicator: W3110, Metabolic Activation: NONE, Method: SPOT TEST): inactive; negative; mutagenic call (Test System: E. COLI, Strain/Indicator: W3110, Metabolic Activation: RAT LIVER S-9, AROCLOR 1254, Method: SPOT TEST): inactive; negative; mutagenic call (Test System: MOUSE LYMPHOMA, Strain/Indicator: L5178Y (TK+/TK-), Metabolic Activation: NONE, Method: SUSPENSION/PLATE): inactive; negative; mutagenic call (Test System: MOUSE LYMPHOMA, Strain/Indicator: L5178Y (TK+/TK-), Metabolic Activation: RAT, LIVER, S-9, Method: SUSPENSION/PLATE): inactive; negative
O=C(/C=C/c1ccccc1)c1ccc(O)cc1	inactive; negative	inactive; negative	inactive; negative	inactive; negative	–	–	–	–	–	–
